# Data from patent US20250092058A1 (priority 2018, published 2025).
# Where two headings read alike, the source gives them in different places.
# How the values were obtained:
# PDX14244 and PDX27454 = assay: Pancreatic PDX14244 (left flank) and colorectal PDX27454 (right flank) in the same SCID mice; type: in vivo
# Procedure: Human xenograft tumors used.
# The vehicle is the same aqueous suspension without FL7N-1. Experimental SCID mice were subcutaneously implanted with 30-40 mg individual PDX tumors (isolated from maintenance mice) at the flank area (left side for PDX14244, and right side for PDX27454) of SCID mice. […] The animal model of PDX tumors was orally treated weekly for 3 times as shown with black arrows. […] Thus, FL7N-1 may be a priority candidate to be developed for treatment of children rare disease retinoblastoma.
# (§1) The vehicle is the same think aqueous suspension without drug. Experimental SCID mice were subcutaneously implanted with 30-40 mg individual PDX tumors (isolated from maintenance mice) at the flank area (left side for PDX14244, and right side for PDX27454) of SCID mice. […] The animal model of PDX tumors was orally treated weekly for 3 times as shown with black arrows.
# as §1, with “for 4” for “for 3”, “times (one cycle/course,” for “times”, “black arrows).” for “black arrows.”
# as §1, with “times in two doses due to drug limitation then (as” for “times as”, “black arrows).” for “black arrows.”
# T24 = assay: MTT assay T24; type: cell-based; conditions: Table 5 lower part; T24 bladder cancer
# Procedure: (§2) MTT assays. […] Viable cells (2500 cells per well) were plated in each well in 96-well plates. After an overnight incubation, cells were treated with and without relevant drugs alone and in combination, respectively, at various concentrations and incubated for 72 hours. MTT, a colorimetric substrate, was added to a final concentration of 0.4 mg/ml to each well. Cells in 96-well plates were further incubated in a 5% CO2 incubator at 37° C. for 4 hours, and then the medium was aspirated. The MTT metabolic product formazan was solubilized by adding 200 ul of DMSO to each well. Absorbance in the relevant wells was measured at 570 nm using an Ultra Microplate Reader (Bio-Tek Instruments). Each experiment was performed at least in triplicate. IC50/EC50 values were calculated from a series of drug dose ranges for each analyzed compound, using GraphPad Prism 6 (GraphPad Software, Inc., La Jolla, CA).
# (§3) The inhibition of cell growth and viability in various cancer cell types were tested using MTT assay for references.
# RT4 = assay: MTT assay RT4; type: cell-based; conditions: Table 5 lower part; RT4 bladder cancer
# Procedure: as §2, §3
# UOK151 = system: UOK151
# Procedure: as §2, §3
# H1376 = system: H1376
# Procedure: as §2, §3
# UOK262 = system: UOK262
# Procedure: as §2, §3
# UMUC-3 = system: UMUC-3
# Procedure: as §2, §3
# [1] = system: HT-3 retinoblastoma xenograft tumors; conditions: for antitumor activity and toxicity profile / overall antitumor activity versus toxicity ranking: oral; for antitumor activity and toxicity profile: one time, 3-4 doses; for overall antitumor activity versus toxicity ranking: multiple doses, weekly×4
# Procedure: Human HT-3 retinoblastoma xenograft tumors were initially established by subcutaneously injection of 2-5×10^6 HT-3 cells in a volume of 100-200 μL medium. Mouse models of HT-3 xenografts were set up by subcutaneously inoculating 30-40 mg tumor tissue on the flank of SCID mice. Treatment with individual compounds was initiated 7-14 days after the transplanted tumors reached 100-200 mm^3 (designated day 0). […] The individual compounds were formulated in an organic solvent-free with HPPCD as drug carriers in 2% HPMC (hydroxypropyl methylcellulose) and 1% PG (propylene glycol) in saline (a thick aqueous suspension) for oral administration. The vehicle is the same thick aqueous suspension without drug. A. FL7s-3-treated xenograft tumor curve profile (left panel) and body weight profile (right panel) over the experimental period. B. FL7s-4-treated xenograft tumor curve profile (left panel) and body weight profile (right panel) over the experimental period. C. FL7s-7-treated xenograft tumor curve profile (left panel) and body weight profile (right panel) over the experimental period.
# (§4) Human xenograft tumors used. In this invention disclose, human SW620 (colorectal), HT29 (colorectal) and HT-3 (retinoblastoma) cancer cell line-established xenograft tumors were used. Human tumor cell line-derived xenograft tumors are initially established by subcutaneously injecting 2-5×10^6 cultured cancer cells in a volume of 100-150 p L medium into the flank area of severe combined immunodeficiency (SCID) mice. The derived tumors are then passed a couple of generations in mice by transplanting 30-50 mg non-necrotic tumor mass via a trocar for experiments or maintenance. […] PDX tumors were originally established on severe Combined Immunodeficiency (SCID) mice from pancreatic and colorectal cancer patient tumor tissues obtained from metastatic sites of the disease in the clinic.
# To these three novel compounds, we performed in vivo animal model studies to evaluate their antitumor activity and toxicity using the HT-3 retinoblastoma xenograft tumor models. In this experiment, we still took advantage of the newly developed formulation for oral administration of compounds.
# HCT116 = assay: MTT assay HCT116; type: cell-based, human; conditions: Table 8
# Procedure: (§5) MTT assays. […] Each experiment was performed at least in triplicate.
# Y79 = assay: MTT assay Y79; type: cell-based; conditions: Table 7
# Procedure: as §5
# HT-3 = assay: MTT assay HT-3; type: cell-based, human; conditions: Table 7; HT-3
# Procedure: as §2, §3
# Wer 127 = assay: MTT assay Wer 127; type: cell-based; conditions: Table 7
# Procedure: as §5
# A2008 = assay: MTT assay A2008; type: cell-based; conditions: Table 9; A2008
# Procedure: as §2, §3
# A549 = assay: MTT assay A549; type: cell-based, human; conditions: Table 9
# Procedure: as §5
# SW620 xenograft tumors = conditions: oral weekly for 1-2 times
# Description: as §4
# Human SW620 xenograft tumors were initially established by subcutaneously injection of 2-5×10^6 SW620 cells in a volume of 100-150 μL medium. Mouse models of SW620 xenografts were set up by subcutaneously inoculating 30-40 mg tumor tissue (isolated from tumor maintenance SCID mice) on the flank of SCID mice. Treatment with individual compounds was initiated 7-14 days after the transplanted tumors reached 100-200 mm^3 (designated day 0). The treatment schedule is weekly for 1-2 times in a series of dose levels based on the available drug amounts then. The individual compounds were formulated in an organic solvent-free with HPβCD in 2% HPMC (hydroxypropyl methylcellulose) and 1% PG (propylene glycol) in saline (a thick aqueous suspension) for oral administration. The vehicle is the same thick aqueous suspension without drug.
# PDX10978 = assay: Pancreatic cancer PDX10978 in SCID mice; type: in vivo; conditions: FL118 0.75 mg/kg or gemcitabine 60 mg/kg ip qw×4
# Procedure: Human pancreatic cancer patient-derived xenograft (PDX) tumor mouse model and treatment. Experiments followed the IACUC-approved mouse protocol. Briefly, human PDAC PDX tumors maintained on SCID mice were isolated, and a piece of non-necrotic tumor tissues (30-40 mg) were subcutaneously transplanted into the flank area of female SCID mice. […] In this study, we used the timesaving intraperitoneal (ip) route for drug administration. […] The formulation process was described in detail in our previous patent (PCT/US2011/058558). […] Tumor length (L) and width (W) were measured using digital vernier calipers 1-3 times per week until the end of experimental studies. The tumor volume (v) was calculated using the formula: v=0.5 (L×W^2). Then the tumor size was divided by the day 0 tumor size as percentage tumor size versus day 0. The mean tumor volume ± standard deviation (SD) at each time point was derived from 5 mice in each group. The tumor curves were made using Sigma Plot software.
# It has been recently documented that pancreatic cancer PDXs retain active paracrine/Hedgehog signaling, and desmoplasia is active in PDX tumor mouse models.
# [2] = oral one time, 5, 10 and 15 mg/kg
smiles,measurement,setting,value
CC[C@@]1(O)C(=O)OCc2c1cc1n(c2=O)Cc2c-1nc1cc3c(cc1c2-c1ccc(OC)cc1)OCO3 [7Q 9],"antitumor activity, 7Q-series (1)",PDX14244 and PDX27454; oral weekly for 4 times,much higher antitumor activity than the other compounds in this 7Q-series (1)
same,IC50/EC50,T24,0.32 nM
same,IC50/EC50,RT4,3.37 nM
same,IC50/EC50,"UOK151; Table 5 lower part, UOK151 kidney cancer",50 nM
same,IC50/EC50,"H1376; Table 5 lower part, H1376 bladder cancer",>500 nM
same,IC50/EC50,"UOK262; Table 5 lower part, UOK262 kidney cancer",32 nM
same,IC50/EC50,"UMUC-3; Table 5 lower part, UMUC-3 bladder cancer",0.35 nM
"CC[C@@]1(O)C(=O)OCc2c1cc1n(c2=O)Cc2c-1nc1cc3c(cc1c2CCN1CCOCC1)OCO3 [Compound 7N1, 20 (S)-7-morpholinylethyl-10,11-methylenedioxy-camptothecin]",antitumor activity,PDX14244 and PDX27454; oral weekly for 3 times,very good
same,IC50/EC50,"UOK151; Table 8, UOK151",42.8 nM
same,IC50/EC50,"H1376; Table 8, H1376",>500 nM
same,IC50/EC50,"UOK262; Table 8, UOK262",38 nM
same,IC50/EC50,"UMUC-3; Table 8, UMUC-3",2.05 nM
same,antitumor activity,[1]; [2],exceptional antitumor activity in all three doses used
same,toxicity (mouse body weight loss),[1]; [2],without showing toxicity
same,antitumor activity and toxicity profile,[1],great antitumor activity and favorable toxicity profiles
same,IC50/EC50,HCT116,11.6 nM
CC[C@@]1(O)C(=O)OCc2c1cc1n(c2=O)Cc2c-1nc1cc3c(cc1c2CCN1CCCCC1C)OCO3 (stereo partly drawn) [Compound 7N2],antitumor activity and toxicity profile,[1],great antitumor activity and favorable toxicity profiles
same,IC50/EC50,HCT116,25.62 nM
"CC[C@@]1(O)C(=O)OCc2c1cc1n(c2=O)Cc2c-1nc1cc3c(cc1c2CCN1CCSCC1)OCO3 [Compound 7N3, 20 (S)-7-thiomorpholinylethyl-10,11-methylenedioxy-camptothecin]",antitumor activity and toxicity profile,[1],great antitumor activity and favorable toxicity profiles
same,IC50/EC50,HCT116,171.9 nM
"CC[C@@]1(O)C(=O)OCc2c1cc1n(c2=O)Cc2c-1nc1cc3c(cc1c2CCc1ccc(Br)cc1)OCO3 [FL7-17, 20 (S)-7-(4-bromo-phenethyl)-10,11-methylenedioxy-camptothecin]",IC50/EC50,Y79,1.57 nM
same,IC50/EC50,HT-3,6.48 nM
same,IC50/EC50,Wer 127,2.48 nM
same,overall antitumor activity versus toxicity ranking,[1],not as good as FL7-5 and FL7-14
CC[C@@]1(O)C(=O)OCc2c1cc1n(c2=O)Cc2c-1nc1cc3c(cc1c2/C=C/c1ccc(F)cc1)OCO3 [FL7s-3],IC50/EC50,Y79,0.61 nM
same,IC50/EC50,HT-3,1.68 nM
same,IC50/EC50,Wer 127,40.69 nM
same,overall antitumor activity versus toxicity ranking,[1],top two candidates
CC[C@@]1(O)C(=O)OCc2c1cc1n(c2=O)Cc2c-1nc1cc3c(cc1c2CCc1cccc(F)c1)OCO3 [FL7s-7],IC50/EC50,Y79,0.29 nM
same,IC50/EC50,HT-3,2.22 nM
same,IC50/EC50,Wer 127,4.76 nM
same,overall antitumor activity versus toxicity ranking,[1],top two candidates
CC[C@@]1(O)C(=O)OCc2c1cc1n(c2=O)Cc2c-1nc1cc3c(cc1c2-c1ccc(F)c(F)c1)OCO3 [HX6],"antitumor activity and toxicity, Hx-series",PDX14244 and PDX27454; oral weekly for 3 times,much higher antitumor activity with favorable toxicity
same,IC50/EC50,"UOK151; Table 10, UOK151",4.6 nM
same,IC50/EC50,"UOK262; Table 10, UOK262",4.9 nM
"CC[C@@]1(O)C(=O)OCc2c1cc1n(c2=O)Cc2c-1nc1cc3c(cc1c2-c1ccncc1)OCO3 [W-b1, 20 (S)-7-(pyridyl-4-)-FL118 (10,11-methylenedioxy-camptothecin)]",IC50/EC50,A2008,24.4 nM
same,IC50/EC50,A549,73.4 nM
CC[C@@]1(O)C(=O)OCc2c1cc1n(c2=O)Cc2c-1nc1cc3c(cc1c2-c1cccnc1)OCO3 [W-b2],IC50/EC50,A2008,4.6 nM
same,antitumor activity,SW620 xenograft tumors,much higher antitumor activity than the other compounds in this Wb-series
same,IC50/EC50,A549,2.24 nM
CC[C@@]1(O)C(=O)OCc2c1cc1n(c2=O)Cc2c-1nc1cc3c(cc1c2-c1ccsc1)OCO3 [W-b4],IC50/EC50,A2008,31.9 nM
same,IC50/EC50,A549,1.99 nM
CC[C@@]1(O)C(=O)OCc2c1cc1n(c2=O)Cc2c-1nc1cc3c(cc1c2-c1cnn(C)c1)OCO3 [W-b5],IC50/EC50,A2008,17.5 nM
same,IC50/EC50,A549,2.29 nM
CC[C@@]1(O)C(=O)OCc2c1cc1n(c2=O)Cc2c-1nc1cc3c(cc1c2-c1ccco1)OCO3 [W-b7],IC50/EC50,A2008,0.19 nM
same,IC50/EC50,A549,0.39 nM
CC[C@@]1(O)C(=O)OCc2c1cc1n(c2=O)Cc2c-1nc1cc3c(cc1c2-c1ccc(CO)cc1)OCO3 [W-b9],IC50/EC50,A2008,3.49 nM
same,IC50/EC50,A549,1.28 nM
CC[C@@]1(O)C(=O)OCc2c1cc1n(c2=O)Cc2c-1nc1cc3c(cc1c2-c1cc(C(F)(F)F)cc(C(F)(F)F)c1)OCO3 [W-b10/Hx7],"antitumor activity and toxicity, Hx-series",PDX14244 and PDX27454; oral weekly for 3 times,much higher antitumor activity with favorable toxicity
same,IC50/EC50,A2008,7.31 nM
same,IC50/EC50,"UOK151; Table 10, UOK151",>500 nM
same,IC50/EC50,"UOK262; Table 10, UOK262",33.4 nM
same,IC50/EC50,A549,5.29 nM
"Nc1ccn([C@@H]2O[C@H](CO)[C@@H](O)C2(F)F)c(=O)n1 [gemcitabine, reference compound]","antitumor efficacy, single agent",PDX10978,only delayed tumor growth
